From patent publication US8568784B2, “Nanoparticles for delivery of active agents” (Morehouse School of Medicine, priority 2006, dated 2013) come the findings set out here.

A short description of this data set: Percent entrapment and loading studies of particles. The format is physicochemical. As to conditions: entrapped in PCL-XP particles.
Regarding `O=S(=O)([O-])c1cc(S(=O)(=O)Cl)ccc1C1=c2cc3c4c(c2Oc2c1cc1c5c2CCCN5CCC1)CCC[N+]=4CCC3` [TR, Texas Red], the entrapment efficiency is approximately 100% and the “loading per weight of the particles” value was approximately 20%.

Take `N.N.[Cl][Pt][Cl]` [cisplatin]: the entrapment efficiency is recorded as approximately 100% and the “loading per weight of the particles” value is approximately 20%.

Turning to `[Gd]` [gadolinium], the entrapment efficiency was approximately 100% and the “loading per weight of the particles” value is reported as approximately 20%.
